Laboratory results from US7767707B2, “Fused pyrazolyl compounds having an aminoalkylcarbonyl group” (Yung Shin Pharm. Ind. Co., Ltd., priority 2007, dated 2010).

Tested on: NCI H-226 cells
Assay: Cytotoxicity MTT assay against NCI H-226 cells
Assay type: cell-based
Details: NCI H-226 cells (4 × 10^4), 72 hrs treatment, mean ± S.D. of three experiments
Method: The target compound 5, 6 and related succinate (A), glutamate (B) derivatives were evaluated in a MTT assay against NCI H226 cells, and the results are shown in Table 1.
The NCI H-226 cells were maintained in RPMI-1640 medium supplemented with 10% fetal bovine serum (GIBCO/BRL), penicillin (100 unit/mL)/streptomycin (100 μg/mL) (GIBCO/BRL) and 1% L-glutamine (GIBCO/BRL) at 37° C. in a humidified atmosphere containing 5% CO2. Logarithmically growing tumor cells were used for all experiments.
The cytotoxicity was assessed using MTT assay.^1 NCI H-226 cells (4×10^4) were treated separately with compounds A, B, 5, and 6 for 72 h. After treatment, the cells were collected, washed with cold PBS, and then added 10 μL of MTT solution (5 mg/mL)(Sigma) with 50 μL of cells suspension in HBSS into 96-well plate and incubated them at 37° C. in the dark for 2 h. Treatment of living cells with MTT produces a dark blue formazan product, whereas no such staining is observed in dead cells. The formazan product was dissolved by adding 140 μL DMSO and then the absorbance was measured on an ELISA reader at a best wavelength of 570 nm.
Values are expression as the mean ±S.D. of three independent experiments. Student's t tests were used to assess the statistical significance of the differences, with “p” values of less than 0.05 being considered statistically significant.

## NCC(=O)OCc1ccc(-c2nn(Cc3ccccc3)c3ccccc23)o1 [Compound 5]
Conc. 0.10 μM
  MTT %: 85.8 ± 1.7%
Conc. 1.0 μM
  MTT %: 18.5 ± 3.9%
Conc. 10.0 μM
  MTT %: 0%
